Laboratory results from PMC11167047 (Cell Death Discovery, 2024).

Legend:
Assay in all cases: kinome screen (33PanQinase)
Format in all cases: biochemical
SIK1 = biological target: T1, SIK1 (Homo sapiens, UniProt P57059)
T1 construct: purchased Reaction Biology Europe GmbH (formerly ProQinase)
Method: (§1) The Kinome Screening was performed by Reaction Biology Europe GmbH (http://reactionbiology.com; Freiburg i. Br., Germany).

CDK4/CycD2 = biological target: T2, CDK4/CycD2 (Homo sapiens, UniProt P11802)
T2 construct: purchased Reaction Biology Europe GmbH (formerly ProQinase)
Method: as §1

PKCι = biological target: T3, PKCι (Homo sapiens, UniProt P41743)
T3 construct: purchased Reaction Biology Europe GmbH (formerly ProQinase)
T3 sequence (P41743 1-596): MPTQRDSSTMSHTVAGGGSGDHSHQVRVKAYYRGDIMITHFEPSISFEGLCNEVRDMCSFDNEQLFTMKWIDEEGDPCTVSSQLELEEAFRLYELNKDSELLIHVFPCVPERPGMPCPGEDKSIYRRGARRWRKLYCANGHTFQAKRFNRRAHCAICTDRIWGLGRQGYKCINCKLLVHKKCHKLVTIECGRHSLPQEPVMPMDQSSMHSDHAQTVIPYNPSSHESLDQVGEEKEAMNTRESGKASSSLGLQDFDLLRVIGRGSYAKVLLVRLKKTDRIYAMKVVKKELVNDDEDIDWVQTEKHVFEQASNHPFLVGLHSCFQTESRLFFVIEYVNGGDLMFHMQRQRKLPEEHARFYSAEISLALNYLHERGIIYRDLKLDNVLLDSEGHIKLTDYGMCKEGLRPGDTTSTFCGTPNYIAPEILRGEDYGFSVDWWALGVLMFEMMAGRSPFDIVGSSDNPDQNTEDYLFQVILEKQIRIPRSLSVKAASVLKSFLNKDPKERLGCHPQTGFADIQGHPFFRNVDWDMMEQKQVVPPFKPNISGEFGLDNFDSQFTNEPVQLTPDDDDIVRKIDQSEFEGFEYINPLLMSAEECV
Method: as §1

VEGFR1 = biological target: T4, VEGFR1 (Homo sapiens, UniProt P17948)
T4 construct: purchased Reaction Biology Europe GmbH (formerly ProQinase)
Method: as §1

TSK2 = biological target: T5, TSK2 (Homo sapiens, UniProt Q96PF2)
T5 construct: purchased Reaction Biology Europe GmbH (formerly ProQinase)
T5 sequence (Q96PF2 1-358): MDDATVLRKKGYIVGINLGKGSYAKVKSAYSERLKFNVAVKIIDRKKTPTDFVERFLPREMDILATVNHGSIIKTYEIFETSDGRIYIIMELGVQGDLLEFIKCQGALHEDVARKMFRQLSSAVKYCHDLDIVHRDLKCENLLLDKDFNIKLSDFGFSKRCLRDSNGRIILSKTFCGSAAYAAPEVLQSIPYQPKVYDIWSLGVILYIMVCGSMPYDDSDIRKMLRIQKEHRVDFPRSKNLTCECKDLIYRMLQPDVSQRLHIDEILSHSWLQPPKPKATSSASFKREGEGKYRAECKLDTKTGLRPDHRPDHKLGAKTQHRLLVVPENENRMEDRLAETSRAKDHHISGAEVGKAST
Method: as §1

MAP3K7/MAP3K7IP1 = biological target: T6, MAP3K7/MAP3K7IP1 (Homo sapiens, UniProt O43318)
T6 construct: purchased Reaction Biology Europe GmbH (formerly ProQinase)
T6 sequence (O43318 1-303 limits assumed): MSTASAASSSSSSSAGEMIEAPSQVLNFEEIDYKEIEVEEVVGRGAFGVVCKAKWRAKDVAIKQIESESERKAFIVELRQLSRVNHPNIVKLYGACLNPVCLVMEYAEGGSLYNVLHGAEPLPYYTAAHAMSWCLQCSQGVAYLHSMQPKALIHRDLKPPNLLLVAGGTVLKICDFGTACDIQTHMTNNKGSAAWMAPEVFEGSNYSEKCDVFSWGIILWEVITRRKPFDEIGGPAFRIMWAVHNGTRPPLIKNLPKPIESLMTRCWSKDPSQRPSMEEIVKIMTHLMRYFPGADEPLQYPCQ
T6 sequence (Q15750 437-504 partner limits assumed): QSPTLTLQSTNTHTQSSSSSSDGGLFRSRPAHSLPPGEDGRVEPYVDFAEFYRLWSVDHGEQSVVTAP
Method: as §1

TGFBR1 = biological target: T7, TGFBR1 (Homo sapiens, UniProt P36897)
T7 construct: purchased Reaction Biology Europe GmbH (formerly ProQinase)
T7 sequence (P36897 34-503): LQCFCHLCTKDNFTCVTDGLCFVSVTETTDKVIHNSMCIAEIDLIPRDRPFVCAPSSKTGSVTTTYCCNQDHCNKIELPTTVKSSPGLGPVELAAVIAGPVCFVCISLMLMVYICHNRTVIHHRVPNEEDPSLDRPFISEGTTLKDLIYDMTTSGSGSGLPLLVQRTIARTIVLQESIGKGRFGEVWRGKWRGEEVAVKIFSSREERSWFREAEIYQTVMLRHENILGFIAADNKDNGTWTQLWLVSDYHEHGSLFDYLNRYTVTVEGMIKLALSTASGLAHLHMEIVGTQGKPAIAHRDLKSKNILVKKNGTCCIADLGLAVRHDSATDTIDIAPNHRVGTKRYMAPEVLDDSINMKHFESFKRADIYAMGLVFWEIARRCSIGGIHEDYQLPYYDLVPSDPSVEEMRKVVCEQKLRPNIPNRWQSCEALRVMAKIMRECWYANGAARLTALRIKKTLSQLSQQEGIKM
Method: as §1

PDGFRβ = biological target: T8, PDGFRβ (Homo sapiens, UniProt P09619)
T8 construct: purchased Reaction Biology Europe GmbH (formerly ProQinase)
Method: as §1

MTOR = biological target: T9, MTOR (Homo sapiens, UniProt P42345)
T9 construct: purchased Reaction Biology Europe GmbH (formerly ProQinase)
Method: as §1

MST1 = biological target: T10, MST1 (Homo sapiens, UniProt Q13043)
T10 construct: purchased Reaction Biology Europe GmbH (formerly ProQinase)
T10 sequence (Q13043 1-487): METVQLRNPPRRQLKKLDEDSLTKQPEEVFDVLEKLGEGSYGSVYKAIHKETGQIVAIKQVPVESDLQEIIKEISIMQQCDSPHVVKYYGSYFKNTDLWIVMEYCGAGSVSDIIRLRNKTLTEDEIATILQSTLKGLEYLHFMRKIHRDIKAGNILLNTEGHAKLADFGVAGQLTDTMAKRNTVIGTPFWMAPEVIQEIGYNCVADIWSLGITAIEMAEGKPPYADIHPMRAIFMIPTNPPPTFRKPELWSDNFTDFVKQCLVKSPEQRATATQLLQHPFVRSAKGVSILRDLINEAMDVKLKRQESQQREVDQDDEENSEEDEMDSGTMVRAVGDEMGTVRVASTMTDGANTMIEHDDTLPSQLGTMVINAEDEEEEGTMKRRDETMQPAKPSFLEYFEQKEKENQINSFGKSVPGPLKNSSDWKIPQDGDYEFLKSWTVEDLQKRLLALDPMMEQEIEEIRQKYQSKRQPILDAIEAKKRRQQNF
Method: as §1

T2 sequence (P11802 whole entry): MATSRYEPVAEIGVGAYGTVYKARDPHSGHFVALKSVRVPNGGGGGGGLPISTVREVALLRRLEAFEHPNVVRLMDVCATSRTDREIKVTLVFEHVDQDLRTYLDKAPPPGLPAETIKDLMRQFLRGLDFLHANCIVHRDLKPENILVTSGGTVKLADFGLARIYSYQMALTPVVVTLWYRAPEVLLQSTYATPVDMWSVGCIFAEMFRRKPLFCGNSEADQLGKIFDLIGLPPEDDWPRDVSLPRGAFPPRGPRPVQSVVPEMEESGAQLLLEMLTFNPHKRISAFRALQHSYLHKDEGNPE
T2 sequence (P30279 whole entry partner): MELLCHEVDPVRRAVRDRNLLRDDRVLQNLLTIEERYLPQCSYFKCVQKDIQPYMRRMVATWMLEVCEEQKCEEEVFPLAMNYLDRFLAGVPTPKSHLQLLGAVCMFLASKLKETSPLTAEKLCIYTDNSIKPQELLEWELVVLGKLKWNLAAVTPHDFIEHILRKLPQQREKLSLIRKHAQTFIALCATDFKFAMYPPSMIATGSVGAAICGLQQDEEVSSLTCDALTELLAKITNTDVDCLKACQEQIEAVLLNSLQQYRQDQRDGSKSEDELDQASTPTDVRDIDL
T8 sequence (P09619 33-1106): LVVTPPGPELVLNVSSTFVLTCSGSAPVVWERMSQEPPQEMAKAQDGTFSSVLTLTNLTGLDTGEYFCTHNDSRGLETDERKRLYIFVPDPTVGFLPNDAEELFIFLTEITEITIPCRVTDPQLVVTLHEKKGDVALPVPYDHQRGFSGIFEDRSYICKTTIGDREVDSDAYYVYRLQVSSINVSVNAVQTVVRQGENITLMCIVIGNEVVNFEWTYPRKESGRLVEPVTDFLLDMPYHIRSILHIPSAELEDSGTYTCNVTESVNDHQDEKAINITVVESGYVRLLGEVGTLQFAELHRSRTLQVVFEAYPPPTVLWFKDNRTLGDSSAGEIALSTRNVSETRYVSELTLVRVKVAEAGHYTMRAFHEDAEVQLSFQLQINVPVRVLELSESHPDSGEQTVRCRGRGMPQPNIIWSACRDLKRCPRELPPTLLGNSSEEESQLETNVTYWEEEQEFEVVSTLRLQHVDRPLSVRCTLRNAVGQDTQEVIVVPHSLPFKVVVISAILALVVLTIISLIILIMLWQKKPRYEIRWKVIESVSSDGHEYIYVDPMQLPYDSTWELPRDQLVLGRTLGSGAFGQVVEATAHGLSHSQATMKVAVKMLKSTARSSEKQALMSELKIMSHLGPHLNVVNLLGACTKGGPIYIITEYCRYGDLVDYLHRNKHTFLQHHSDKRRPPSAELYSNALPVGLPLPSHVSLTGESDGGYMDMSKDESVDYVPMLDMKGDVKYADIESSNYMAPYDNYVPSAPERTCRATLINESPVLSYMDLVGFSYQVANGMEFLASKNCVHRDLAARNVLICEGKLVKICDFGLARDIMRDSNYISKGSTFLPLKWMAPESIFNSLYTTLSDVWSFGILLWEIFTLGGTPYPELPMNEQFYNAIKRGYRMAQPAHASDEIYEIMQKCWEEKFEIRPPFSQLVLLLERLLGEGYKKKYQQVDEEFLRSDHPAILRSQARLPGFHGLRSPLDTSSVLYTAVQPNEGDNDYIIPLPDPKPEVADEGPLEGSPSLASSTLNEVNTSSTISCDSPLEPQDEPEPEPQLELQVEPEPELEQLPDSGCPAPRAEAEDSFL
T4 sequence (P17948 27-1338): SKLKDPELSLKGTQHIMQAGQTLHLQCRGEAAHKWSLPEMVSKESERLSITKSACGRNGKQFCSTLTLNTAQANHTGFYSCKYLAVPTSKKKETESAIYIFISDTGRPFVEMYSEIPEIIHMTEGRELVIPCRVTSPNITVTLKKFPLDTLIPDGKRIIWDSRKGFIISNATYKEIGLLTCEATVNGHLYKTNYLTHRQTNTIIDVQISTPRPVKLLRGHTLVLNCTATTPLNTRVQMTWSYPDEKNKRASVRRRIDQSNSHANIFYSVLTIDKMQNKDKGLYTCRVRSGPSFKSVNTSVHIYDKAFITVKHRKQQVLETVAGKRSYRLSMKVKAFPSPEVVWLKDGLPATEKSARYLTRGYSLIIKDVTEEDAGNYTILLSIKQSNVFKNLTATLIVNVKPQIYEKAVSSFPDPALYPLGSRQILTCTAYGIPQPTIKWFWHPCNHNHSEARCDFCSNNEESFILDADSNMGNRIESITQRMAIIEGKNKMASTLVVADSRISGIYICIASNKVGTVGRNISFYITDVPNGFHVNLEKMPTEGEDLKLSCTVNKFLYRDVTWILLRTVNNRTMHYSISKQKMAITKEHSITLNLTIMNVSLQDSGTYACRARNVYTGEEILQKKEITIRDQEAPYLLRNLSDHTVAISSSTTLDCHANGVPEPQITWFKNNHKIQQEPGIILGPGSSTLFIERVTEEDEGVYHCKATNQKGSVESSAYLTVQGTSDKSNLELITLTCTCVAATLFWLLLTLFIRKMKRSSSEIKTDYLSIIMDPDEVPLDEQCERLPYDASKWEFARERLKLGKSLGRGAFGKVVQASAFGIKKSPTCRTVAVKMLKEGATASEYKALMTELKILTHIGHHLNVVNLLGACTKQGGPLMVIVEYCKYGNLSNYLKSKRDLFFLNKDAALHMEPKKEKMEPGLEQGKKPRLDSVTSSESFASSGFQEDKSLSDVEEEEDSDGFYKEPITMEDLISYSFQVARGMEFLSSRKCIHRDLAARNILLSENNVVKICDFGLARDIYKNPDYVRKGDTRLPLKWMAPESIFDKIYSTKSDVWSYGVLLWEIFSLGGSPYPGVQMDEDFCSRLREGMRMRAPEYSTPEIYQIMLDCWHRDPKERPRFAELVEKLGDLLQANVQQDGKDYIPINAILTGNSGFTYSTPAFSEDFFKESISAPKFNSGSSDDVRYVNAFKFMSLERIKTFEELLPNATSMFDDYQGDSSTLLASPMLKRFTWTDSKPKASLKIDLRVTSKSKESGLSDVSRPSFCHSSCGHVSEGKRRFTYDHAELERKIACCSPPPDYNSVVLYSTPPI
T1 sequence (P57059 whole entry): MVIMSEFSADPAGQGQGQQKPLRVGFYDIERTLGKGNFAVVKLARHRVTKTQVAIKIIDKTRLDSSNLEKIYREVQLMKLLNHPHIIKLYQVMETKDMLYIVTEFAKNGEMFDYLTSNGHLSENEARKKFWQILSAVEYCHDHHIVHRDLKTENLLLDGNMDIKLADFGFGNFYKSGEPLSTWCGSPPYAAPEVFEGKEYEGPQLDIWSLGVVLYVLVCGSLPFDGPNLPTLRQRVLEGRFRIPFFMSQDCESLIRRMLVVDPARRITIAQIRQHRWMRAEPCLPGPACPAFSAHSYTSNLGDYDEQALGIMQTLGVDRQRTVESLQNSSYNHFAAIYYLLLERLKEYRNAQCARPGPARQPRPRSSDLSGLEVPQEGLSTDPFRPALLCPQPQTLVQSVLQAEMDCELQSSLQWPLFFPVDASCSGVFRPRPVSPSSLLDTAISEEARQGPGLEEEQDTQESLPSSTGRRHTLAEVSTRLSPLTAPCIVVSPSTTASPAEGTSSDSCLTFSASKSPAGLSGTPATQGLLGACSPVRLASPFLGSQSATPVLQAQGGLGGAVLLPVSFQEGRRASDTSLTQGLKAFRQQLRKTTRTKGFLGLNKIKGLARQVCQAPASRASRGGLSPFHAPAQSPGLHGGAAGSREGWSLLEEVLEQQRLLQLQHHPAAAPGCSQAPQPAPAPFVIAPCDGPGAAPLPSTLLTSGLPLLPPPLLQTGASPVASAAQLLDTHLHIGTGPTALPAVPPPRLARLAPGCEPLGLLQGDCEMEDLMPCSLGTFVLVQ

Compound | residual kinase activity (SIK1; 0.3 µM) | residual kinase activity (CDK4/CycD2; 0.3 µM) | residual kinase activity (PKCι; 0.3 µM) | residual kinase activity (VEGFR1; 0.3 µM) | residual kinase activity (TSK2; 0.3 µM) | residual kinase activity (MAP3K7/MAP3K7IP1; 0.3 µM) | residual kinase activity (TGFBR1; 0.3 µM) | residual kinase activity (PDGFRβ; 0.3 µM) | residual kinase activity (MTOR; 0.3 µM) | residual kinase activity (MST1; 0.3 µM) | further results
COc1ccnc2[nH]cc(-c3cc(N)nc(N)c3)c12 [meriolin 16] | 98 % of control | 34 % of control | 94 % of control | 89 % of control | 92 % of control | 17 % of control | 67 % of control | 75 % of control | 105 % of control | 49 % of control | residual kinase activity (SIK1; 0.03 µM): 102 % of control; residual kinase activity (CDK4/CycD2; 0.03 µM): 81 % of control; residual kinase activity (PKCι; 0.03 µM): 105 % of control; residual kinase activity (VEGFR1; 0.03 µM): 110 % of control; residual kinase activity (TSK2; 0.03 µM): 107 % of control; residual kinase activity (MAP3K7/MAP3K7IP1; 0.03 µM): 54 % of control; residual kinase activity (TGFBR1; 0.03 µM): 65 % of control; residual kinase activity (PDGFRβ; 0.03 µM): 93 % of control; residual kinase activity (MTOR; 0.03 µM): 91 % of control; residual kinase activity (MST1; 0.03 µM): 88 % of control
c1ccc(CNc2cc(-c3c[nH]c4ncccc34)ccn2)cc1 [meriolin 36] | 87 % of control | 21 % of control | 75 % of control | 83 % of control | 103 % of control | 15 % of control | 18 % of control | 24 % of control | 78 % of control | 4 % of control | residual kinase activity (SIK1; 3 µM): 48 % of control; residual kinase activity (CDK4/CycD2; 3 µM): 3 % of control; residual kinase activity (PKCι; 3 µM): 32 % of control; residual kinase activity (VEGFR1; 3 µM): 43 % of control; residual kinase activity (TSK2; 3 µM): 94 % of control; residual kinase activity (MAP3K7/MAP3K7IP1; 3 µM): 5 % of control; residual kinase activity (TGFBR1; 3 µM): 0 % of control; residual kinase activity (PDGFRβ; 3 µM): 4 % of control; residual kinase activity (MTOR; 3 µM): 24 % of control; residual kinase activity (MST1; 3 µM): 1 % of control
